Source: ChEMBL document CHEMBL1134998, “A novel synthesis of 7-aryl-8-fluoro-pyrrolo[1,2-a]pyrimid-4-ones as potent, stable GnRH receptor antagonists” (Bioorg Med Chem Lett, 2002)

Biological target: T1, Gonadotropin-releasing hormone receptor (Homo sapiens, UniProt P30968)
T1 sequence (P30968 whole entry): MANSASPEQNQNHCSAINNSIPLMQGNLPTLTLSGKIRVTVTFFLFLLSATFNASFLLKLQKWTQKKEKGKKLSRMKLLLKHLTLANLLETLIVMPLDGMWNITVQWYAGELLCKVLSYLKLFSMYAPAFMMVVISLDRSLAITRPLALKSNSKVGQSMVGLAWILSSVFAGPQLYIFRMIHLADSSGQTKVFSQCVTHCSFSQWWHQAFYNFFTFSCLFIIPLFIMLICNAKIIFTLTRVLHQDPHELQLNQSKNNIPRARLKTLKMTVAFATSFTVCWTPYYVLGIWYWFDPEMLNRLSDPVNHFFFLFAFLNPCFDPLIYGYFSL
Experiment: Binding affinity towards human Gonadotropin-releasing hormone receptor

SMILES	Ki
CCOC(=O)c1cn(Cc2ccccc2F)c2c(F)c(-c3cccc(OC)c3)c(CN(C)Cc3ccccc3)n2c1=O	2600 nM
CCOC(=O)c1cn(Cc2ccccc2F)c2c(F)c(-c3cccc(OC)c3)c(CN(C)CCc3ccccn3)n2c1=O	200 nM
CCOC(=O)c1cn(Cc2ccccc2F)c2c(F)c(-c3cccc(OC)c3)c(CN(C)Cc3ccco3)n2c1=O	24000 nM

These reach a lower Ki. Values come first.

Ki	SMILES
9 nM	CCOC(=O)c1cn(Cc2ccccc2F)c2c(F)c(-c3ccc(OCC(C)C)cc3)c(CN(C)CCc3ccccn3)n2c1=O
42 nM	CCOC(=O)c1cn(Cc2ccccc2F)c2c(F)c(-c3ccc(OCC(C)C)cc3)c(CN(C)Cc3ccccc3)n2c1=O
92 nM	CCOC(=O)c1cn(Cc2ccccc2F)c2c(F)c(-c3ccc(OCC(C)C)cc3)c(CN(C)Cc3ccco3)n2c1=O
